Assay results reported in EP0062319A1, “3-Methyl-1-(2-(3-naphthyloxy)-ethyl)-2-pyrazolin-5-one for the treatment of the metastasis and growth of tumour cells” (BAYER AG, priority 1981, dated 1982).

What was measured:
Metastase = conditions: literature, cited from earlier work
B-16a-Melanom-Zellen = conditions: literature; metastasis induced by intravenous B-16a melanoma cells; cited from earlier work
Lewis-Lungen-Karzinom = experiment: Tumour incidence and final tumour weight of subcutaneous Lewis lung carcinoma in mice; assay type: in vivo, C57BL/6J Mäuse; conditions: killed day 22
From the text: Die antineoplastische Wirksamkeit wurde außerdem durch direkte Messung des Wachstums der Tumorzellen in vitro in Gewebekulturen bestimmt. Diese Methode bedient sich des "Plating" oder Aufimpfens einer bekannten Anzahl von Tumorzellen auf ein Wachstumsmedium und der Bestimmung der Wirkung der Anwesenheit der zu prüfenden Verbindung auf die Tumorzellen-Proliferation. Schließlich wurde die antineoplastische Aktivität in vivo in der Weise bestimmt, daß den Mäusen subkutan Tumorzellen injiziert wurden und das Auftreten von Tumorzellenwachstum sowie das Gewicht der wachsenden Tumorzellen in unbehandelten Kontrolltieren und in mit der Pyrazolon-Verbindung behandelten Tieren bestimmt wurden.
3 mg 3-Methyl-1-[2-(2-naphthyloxy)-ethyl]-2-pyrazolin-5-on wurden in 0,6 ml Ethylalkohol gelöst, und die Lösung wurde mit konzentrierter Natronlauge auf einen pH von 9,5 eingestellt.
Syngeneischen C57BL/6J Wirts-Mäusen wurden 1 x 10^5 Lewis-Lungenkarzinom-Zellen (0,2 ml) subkutan in die Achselhöhlenregion injiziert. Nach einem Zeitraum von 24 Stunden wurde die Pyrazolon-Verbindung 21 Tage lang täglich verabreicht. Die Wirkung der Verabreichung von Theophyllin zusammen mit der Pyrazolon-Verbindung wurde ebenfalls untersucht. Während des Zeitraums wurden die Mäuse unter identischen Bedingungen der Temperatur, Lichteinwirkungsdauer, Ernährung etc. gehalten. Die Mäuse wurden 22 Tage nach der Injektion der Tumorzellen getötet und mittels einer Gesamt-Nekropsie auf die Anwesenheit subkutaner Tumoren untersucht. Vorhandene Tumoren wurden entfernt und auf einer Analysenwaage gewogen.

[1] = test system: B-16a-amelanotischen Melanom-Zellen; experiment: Metastasis of tail-vein injected B-16a melanoma cells (lung tumour colonies) in mice; assay type: in vivo, C57BL/6J Mäuse; conditions: Theophyllin 200 µg injected 1 h before the tumour cells; 5 x 10^4 cells i.v.; mean ± SEM, n = 6
From the text: Wie bereits weiter oben festgestellt wurde, ist die Metastase […], die durch eine Reihe komplizierter Vorgänge dargestellt wird. Gegenwärtig finden zwei "Modell"-Systeme für die Untersuchung der in vivo-Metastase verbreitete Anwendung. Das erste Modellsystem umfaßt die subkutane Injektion der Tumorzellen in das Tier. Die subkutane Injektion der Tumorzellen und anschließende Entwicklung eines Primärtumors, gefolgt von spontaner Metastase, wird als "volle" Metastase betrachtet. Ein anderes Modellsystem umfaßt die Injektion der Tumorzellen durch die Schwanzvene. In Anbetracht der Komplexität der Metastase gilt die Schwanzvenen-Injektion als künstliches und nur partielles Modellsystem, da es nur die Vorgänge während des letzteren Teils der Metastase wiedergibt. Das Schwanzvenen-Modellsystem gilt jedoch auch als außerordentlich günstig im Hinblick auf eine Standardisierung der Versuchsbedingungen [vgl."Methods in Cancer Research", Kapitel VII, Academic Press, Inc., 1978].
Als Kontrolltiere wurden (unbehandelte) C57B1/6J-Mäuse nach folgender Arbeitsweise auf volle Metastase untersucht. Zellsuspensionen der B-16 - und 3LL-Karzinom-Zellen, die wie oben unter A und B beschrieben erhalten worden waren, wurden subkutan in die rechte Achselhöhlenregion der männlichen C57BL/6J-Mäuse injiziert (0,66 mm- = 26 gauge -Nadel; 0,2 ml). Injiziert wurden verschiedene Mengen der Zellsuspensionen im Bereich von 1 x 10^5 bis 1 x 10^6 Zellen. Versuche zur partiellen Metastase wurden in der Weise durchgeführt, daß Tumorzellen über die Schwanzvene in die (unbehandelten) Kontroll-Mäuse injiziert wurden. Die Tiere wurden unter identischen Bedingungen der Temperatur, Lichteinwirkungsdauer, Ernährung etc. gehalten. Nach einem Beobachtungszeitraum von 17 bis 30 Tagen wurden die für die volle Metastase und für die partielle Metastase verwendeten Tiere getötet, und die Lungen, Leber, Nieren, Milz und Gehirn-Gewebe wurde entnommen.
Das entnommene Gewebe wurde in Bouin-Lösung fixiert.
Die Zahl der metastatischen Knötchen in jedem Organ wurde mit Hilfe eines Bausch-und-Lomb Stereo-Zoom-Mikroskops bestimmt. Die Untersuchung der Kontroll- Mäuse auf metastatische Knötchen ergab bei 100 % der Tiere positive Befunde in bezug auf metastatische Lungentumoren; die Inkubationszeit für die Erzeugung solcher Metastasen betrug für die 3LL-Tumorzellen 17 bis 21 Tage und für die B-16 a -Tumorzellen 23 bis 30 Tage. In Leber, Nieren, Milz oder Gehirn-Gewebe wurden keine sichtbaren Knötchen beobachtet.
3 mg 3-Methyl-1-[2-(2-naphthyloxy)-ethyl]-2-pyrazolin-5-on wurden in 0,6 ml absolutem Ethylalkohol suspendiert. Das suspendierte Pyrazolon wurde durch Einstellen des pH auf 9,5 mit NaOH gelöst. […]

For `CC(=O)Oc1ccccc1C(=O)O` [Aspirin], the Metastase (Metastase) is given as “gemischte Ergebnisse”.
In the case of `CCCCC[C@H](O)/C=C/[C@@H]1[C@H]2C/C(=C/CCCC(=O)O)O[C@H]2C[C@H]1O` [Prostacyclin], the Metastase (B-16a-Melanom-Zellen) is given as “verhindert werden kann”.
In the case of `Cn1c(=O)c2[nH]cnc2n(C)c1=O` [Theophyllin, reference compound], the “Tumor-Häufigkeit Anzahl” value (Lewis-Lungen-Karzinom; 250 µg Theophyllin daily i.p. in 0,4 ml) is reported as 9/12, the Tumor-Häufigkeit % (Lewis-Lungen-Karzinom; 250 µg Theophyllin daily i.p.) is reported as 75% and the “Gewicht” value (Lewis-Lungen-Karzinom; final tumour weight, 250 µg Theophyllin daily i.p.) is reported as 1.58 ± 0.42 mg. It also gave a Lungen-Tumor-Kolonien [1] of 165 ± 38.
For `CC(=O)CC(c1ccccc1)c1c(O)c2ccccc2oc1=O` (stereo not shown) [Warfarin], the “antimetastatische Wirkungen” value (Metastase; after intravenous injection of tumour cells and in spontaneously metastasising tumours) is given as “signifikante antimetastatische Wirkungen”.
